Experimental data published in US6737383B1, “Herbicidal oxadiazolidines” (priority 1999, dated 2004).

What was measured:
duck salad = assay: Test B flood test duck salad; assay type: in vivo, Heteranthera limosa
Outline: (§1)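 Each value is a visual injury score relative to controls, with 10 meaning complete control and 0 no effect. Evaluation took place twelve to sixteen days after the 2-leaf-stage plants were treated and kept in the greenhouse.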

pigweed = assay: Test B pre/postemergence pigweed; assay type: in vivo, Amaranthus retroflexus
Outline: (§2)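 Response is a visual 0-to-10 score relative to untreated plants, where 0 means no effect and 10 means complete control, taken twelve to sixteen days after application. Treatments went onto soil at planting and onto foliage of 1- to 4-leaf plants, using a surfactant-containing non-phytotoxic solvent.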

purple nutsedge = assay: Test B pre/postemergence purple nutsedge; assay type: in vivo, Cyperus rotundus
Outline: as §2

surinam grass = assay: Test B pre/postemergence surinam grass; assay type: in vivo, Brachiaria decumbens
Outline: as §2

velvetleaf = assay: Test B pre/postemergence velvetleaf; assay type: in vivo, Abutilon theophrasti; details: for Plant response rating, Velvetleaf: Rate 250 g/ha
Outline: as §2

rice = assay: Test B flood test rice; assay type: in vivo, Oryza sativa
Outline: as §1

wild oat = assay: Test B pre/postemergence wild oat; assay type: in vivo, Avena fatua; details: for Plant response rating, Wild oats: Rate 250 g/ha
Outline: as §2

soybean = assay: Test B pre/postemergence soybean; assay type: in vivo, Glycine max
Outline: as §2

blackgrass = assay: Test B pre/postemergence blackgrass; assay type: in vivo, Alopecurus myosuroides
Outline: as §2

wheat = assay: Test B pre/postemergence wheat; assay type: in vivo, Triticum aestivum; details: for Plant response rating, Wheat: Rate 250 g/ha
Outline: as §2

bedstraw = assay: Test B pre/postemergence bedstraw; assay type: in vivo, Galium aparine; details: Preemergence
Outline: as §2

sugar beet = assay: Test B pre/postemergence sugar beet; assay type: in vivo, Beta vulgaris; details: for Plant response rating, Sugarbeets: Rate 250 g/ha
Outline: as §2

giant foxtail = assay: Test B pre/postemergence giant foxtail; assay type: in vivo, Setaria faberii
Outline: as §2

corn = assay: Test B pre/postemergence corn; assay type: in vivo, Zea mays
Outline: as §2

cocklebur = assay: Test B pre/postemergence cocklebur; assay type: in vivo, Xanthium strumarium
Outline: as §2

crabgrass = assay: Test B pre/postemergence crabgrass; assay type: in vivo, Digitaria sanguinalis
Outline: as §2

[1] = Postemergence (flood test species), Rate 125 g/ha, scale of 0 to 10 where 0 is no effect and 10 is complete control
[2] = Postemergence, Rate 62 g/ha, scale 0 to 10, 0 is no effect, 10 is complete control
[3] = Rate 250 g/ha, headed Pre-emergence (flood test species), scale 0 to 10 (0 no effect, 10 complete control)
[4] = Rate 500 g/ha, headed Pre-emergence (flood test species), scale 0 to 10 (0 no effect, 10 complete control)
[5] = Rate 500 g/ha, listed under Postemergence (flood test species), scale 0 to 10, 0 no effect, 10 complete control
[6] = Rate 1000 g/ha, Pre-emergence (as headed), scale 0 to 10
[7] = Rate 2000 g/ha, Pre-emergence (as headed), scale 0 to 10
[8] = Postemergence, Rate 125 g/ha, scale of 0 to 10 where 0 is no effect and 10 is complete control
[9] = Preemergence, Rate 62 g/ha, scale 0 to 10 (0 no effect, 10 complete control)
[10] = Preemergence, Rate 125 g/ha, scale 0 to 10 (0 no effect, 10 complete control)
[11] = Preemergence, Rate 250 g/ha, scale of 0 to 10 where 0 is no effect and 10 is complete control
[12] = Preemergence, Rate 500 g/ha, scale 0 (no effect) to 10 (complete control)
[13] = Rate 250 g/ha, Postemergence, scale 0 to 10, 0 is no effect, 10 is complete control
[14] = Rate 500 g/ha, Postemergence, scale 0 to 10, 0 no effect, 10 complete control
[15] = Postemergence, Rate 250 g/ha, scale 0 to 10, 0 no effect, 10 complete control
[16] = Preemergence, Rate 125 g/ha, 0 is no effect, 10 is complete control
[17] = Preemergence, scale of 0 to 10 where 0 is no effect and 10 is complete control
[18] = Postemergence, scale 0 to 10, 0 is no effect, 10 is complete control

CC(C)N(C(=O)n1oc(=O)n(Cc2ccccc2)c1=O)c1ccccc1 [Compound 94]
8: Plant response rating, Blackgrass (blackgrass; [11]) | Giant foxtail plant response rating (giant foxtail; [9]) | Giant foxtail plant response rating (giant foxtail; [14]) | Crabgrass plant response rating (crabgrass; [15])
3: Velvetleaf plant response rating (velvetleaf; [12]) | Wild oats plant response rating (0 to 10 scale) (wild oat; [16]) | Blackgrass plant response rating (blackgrass; [15]) | Sugarbeets plant response rating (sugar beet; [14]) | Plant response rating, Corn (corn; [11]) | Cocklebur plant response rating (cocklebur; [14]) | Crabgrass plant response rating (crabgrass; [2]) | Crabgrass plant response rating (crabgrass; [8]) | Crabgrass plant response rating (crabgrass; [9]) | Plant response rating, Crabgrass (crabgrass; [10])
1: Plant response rating, B. signalgrass (surinam grass; [10]) | Plant response rating, B. signalgrass (surinam grass; [11]) | Wild oats plant response rating (wild oat; [14]) | Plant response rating, Blackgrass (blackgrass; [10]) | Cocklebur plant response rating (cocklebur; [8]) | Cocklebur plant response rating (cocklebur; [15])
9: Blackgrass plant response rating (blackgrass; [12]) | Plant response rating, Giant foxtail (giant foxtail; [10]) | Plant response rating, Giant foxtail (giant foxtail; [11]) | Crabgrass plant response rating (crabgrass; [14])
4: Redroot pigweed plant response rating (pigweed; [12]) | Redroot pigweed plant response rating (pigweed; [14]) | Plant response rating, Velvetleaf (velvetleaf; [18]) | Plant response rating, Wild oats (wild oat; [17])
2: Ducksalad plant response rating (duck salad; [5]) | Plant response rating, Redroot pigweed (pigweed; [13]) | B. signalgrass plant response rating (surinam grass; Rate 500 g/ha, Postemergence, scale of 0 to 10 where 0 is no effect and 10 is complete control) | Sugarbeets plant response rating (sugar beet; [2]) | Sugarbeets plant response rating (sugar beet; [8]) | Sugarbeets plant response rating (sugar beet; [12]) | Plant response rating, Sugarbeets (sugar beet; [18]) | Plant response rating, Corn (corn; [10])
10: Giant foxtail plant response rating (giant foxtail; [12]) | Crabgrass plant response rating (crabgrass; [12])
5: B. signalgrass plant response rating (surinam grass; [12]) | Soybean plant response rating (soybean; [2]) | Soybean plant response rating (soybean; [8]) | Plant response rating, Soybean (soybean; [13]) | Soybean plant response rating (soybean; [14]) | Giant foxtail plant response rating (giant foxtail; [15])
6: Velvetleaf plant response rating (velvetleaf; [14]) | Wild oats plant response rating (wild oat; [12]) | Blackgrass plant response rating (blackgrass; [14]) | Corn plant response rating (corn; [12]) | Plant response rating, Crabgrass (crabgrass; [11])
0: Ducksalad plant response rating (duck salad; [1]) | Ducksalad plant response rating (duck salad; [2]) | Ducksalad plant response rating (duck salad; [3]) | Plant response rating, Ducksalad (duck salad; [4]) | Ducksalad plant response rating (duck salad; [6]) | Ducksalad plant response rating (duck salad; [7]) | Ducksalad plant response rating (duck salad; flood test, listed under Postemergence, Rate 250 g/ha, scale 0 to 10, 0 no effect, 10 complete control) | Redroot pigweed plant response rating (pigweed; [2]) | Redroot pigweed plant response rating (pigweed; [8]) | Redroot pigweed plant response rating (pigweed; [9]) | Plant response rating, Redroot pigweed (pigweed; [10]) | Plant response rating, Redroot pigweed (pigweed; [11]) | Nutsedge plant response rating (purple nutsedge; [2]) | Nutsedge plant response rating (purple nutsedge; [8]) | Nutsedge plant response rating (purple nutsedge; [15]) | Nutsedge plant response rating (purple nutsedge; [9]) | Plant response rating, Nutsedge (purple nutsedge; [10]) | Plant response rating, Nutsedge (purple nutsedge; [11]) | Nutsedge plant response rating (purple nutsedge; [12]) | Nutsedge plant response rating (purple nutsedge; [14]) | B. signalgrass plant response rating (surinam grass; [2]) | B. signalgrass plant response rating (surinam grass; [15]) | B. signalgrass plant response rating (surinam grass; [9]) | B. signalgrass plant response rating (surinam grass; Rate 125 g/ha, Postemergence, scale 0 to 10, 0 no effect, 10 complete control) | Velvetleaf plant response rating (velvetleaf; [2]) | Velvetleaf plant response rating (velvetleaf; [8]) | Velvetleaf plant response rating (velvetleaf; [9]) | Velvetleaf plant response rating (0 to 10 scale) (velvetleaf; [16]) | Plant response rating, Velvetleaf (velvetleaf; [17]) | Rice plant response rating (rice; [1]) | Rice plant response rating (rice; [2]) | Plant response rating, Rice (rice; Rate 250 g/ha, Postemergence (flood test), scale 0 to 10, 0 is no effect, 10 is complete control) | Rice plant response rating (rice; [3]) | Plant response rating, Rice (rice; [4]) | Rice plant response rating (rice; [5]) | Rice plant response rating (rice; [6]) | Rice plant response rating (rice; [7]) | Wild oats plant response rating (wild oat; [2]) | Wild oats plant response rating (wild oat; [8]) | Wild oats plant response rating (wild oat; [9]) | Plant response rating, Wild oats (wild oat; [18]) | Soybean plant response rating (soybean; [9]) | Plant response rating, Soybean (soybean; [10]) | Plant response rating, Soybean (soybean; [11]) | Soybean plant response rating (soybean; [12]) | Blackgrass plant response rating (blackgrass; [2]) | Blackgrass plant response rating (blackgrass; [8]) | Blackgrass plant response rating (blackgrass; [9]) | Wheat plant response rating (wheat; [2]) | Wheat plant response rating (wheat; [8]) | Wheat plant response rating (wheat; [9]) | Wheat plant response rating (0 to 10 scale) (wheat; [16]) | Plant response rating, Wheat (wheat; [17]) | Wheat plant response rating (wheat; [12]) | Plant response rating, Wheat (wheat; [18]) | Wheat plant response rating (wheat; [14]) | Bedstraw plant response rating (bedstraw; Rate 62 g/ha, scale 0 to 10 (0 no effect, 10 complete control)) | Plant response rating, Bedstraw (bedstraw; Rate 125 g/ha, scale 0 to 10 (0 no effect, 10 complete control)) | Plant response rating, Bedstraw (bedstraw; Rate 250 g/ha, scale of 0 to 10 where 0 is no effect and 10 is complete control) | Bedstraw plant response rating (bedstraw; Rate 500 g/ha, scale 0 (no effect) to 10 (complete control)) | Sugarbeets plant response rating (sugar beet; [9]) | Sugarbeets plant response rating (0 to 10 scale) (sugar beet; [16]) | Plant response rating, Sugarbeets (sugar beet; [17]) | Giant foxtail plant response rating (giant foxtail; [2]) | Giant foxtail plant response rating (giant foxtail; [8]) | Corn plant response rating (corn; [2]) | Corn plant response rating (corn; [8]) | Corn plant response rating (corn; [15]) | Corn plant response rating (corn; [9]) | Corn plant response rating (corn; [14]) | Cocklebur plant response rating (cocklebur; [2]) | Cocklebur plant response rating (cocklebur; [9]) | Plant response rating, Cocklebur (cocklebur; [10]) | Plant response rating, Cocklebur (cocklebur; [11])
